Data taken from patent publication US20200276174A1, “CYCLIN-DEPENDENT KINASE INHIBITORS IN COMBINATION WITH ANTHRACYCLINES FOR TREATMENT OF CANCER” (TOLERO PHARMACEUTICALS, INC., priority 2018, published 2020).
Where “and” joins values, the source holds several entries; their conditions need not be identical. Identical values can stand only once. Like-named read-outs stand apart in the source and are kept apart here. Blank lines part the entries; values can stand above or below the compound they belong to.

Legend:
[1] = statement only; prodrugs described in WO 2016/187316; cited from earlier work
MV4-11 AML xenograft = MV4-11 AML xenograft model; format: in vivo, female athymic nude mice
Experimental: Alvocidib with a cytarabine and daunorubicin regimen were tested in vivo in the MV4-11 AML xenograft model using female athymic nude mice.
ACD (alvocidib+cytarabine+daunorubicin) is an active regimen in MV4-11 AML xenografts. (A) Tumor volume measurements show decreases following the sequential dosing of alvocidib (qdx2), cytarabine (qdx2), and daunorubicin (qdx1). This five day cycle was repeated twice. […] Doses indicated in mg/kg.
Treatment of alvocidib (1.25 mg/kg) yielded 60.0% TGI.

[2] = system: AML cell lines (OCI-AML3, U937, Molm-13, MV4-11); test: 72-hour viability assay using CellTiter-Glo, single agents in AML cell lines; format: cell-based; details: for comparison of IC50s/activity across cell lines: single agent; for IC50: read-out: single agent IC50 values
Experimental: (A) OCI-AML3, (B) U937, (C) Molm-13, and (D) MV4-11 cells were treated with alvocidib, cytarabine, or daunorubicin, as single agents, in viability assays using CellTiter-Glo according to manufacturer protocol.

[3] = system: MCL-1 expression in MV4-11 cells; test: MCL-1 expression during the alvocidib+cytarabine+daunorubicin regimen modeled in vitro; format: cell-based; details: alvocidib 80 nM, washed out prior to cytarabine (100 nM) addition, daunorubicin 3 nM, in sequence
Experimental: MCL-1 expression during the alvocidib+cytarabine+daunorubicin regimen was modeled in vitro. MV4-11 cells were treated with alvocidib (80 nM), cytarabine (100 nM), or daunorubicin (3 nM), in the sequence shown. Alvocidib (or palbociclib) was washed out prior to cytarabine addition.

previously untreated AML = details: for MRD− (%) / MRD−, number of patients: of all patients evaluable for response
Experimental: The starting dose of alvocidib is 20 mg/m^2 as a 30-minute intravenous (IV) bolus followed by 30 mg/m^2 over 4 hours as an IV infusion administered daily on Days 1-3 of induction. The dose of alvocidib administered in the IV infusion is escalated in 10 mg/m^2 increments to 60 mg/m^2 to determine the maximum tolerated dose and to identify any dose limiting toxicity.
Beginning on Day 5, cytarabine is administered as a 100 mg/m^2/day continuous IV infusion for seven consecutive days (Days 5-11) plus daunorubicin administered at a bolus dosage of 60 mg/m^2 IV on Days 5-7.
The key eligibility criteria were: ages 18-65 years, previously untreated AML, ECOG PS 0-2, and no major organ dysfunction. Treatment consisted of increasing dose levels of alvocidib starting at 20 mg/m^2 as a 30-minute IV bolus followed by 30 mg/m^2 over 4 hours on days 1-3, cytarabine 100 mg/m^2/day by continuous IV infusion on days 5-11, followed by (e.g., followed about 30 minutes later by) daunorubicin 60 mg/m^2 IV on days 5-7. Dose escalation portion was assessed by standard 3+3 design. All patients received a day 14 bone marrow biopsy. Reinduction therapy with alvocidib (same dose as induction) days 1-3, followed by cytarabine 100 mg/m^2/day continuous IV on days 5-9, and daunorubicin 45 mg/m^2 IV days 5-6 was recommended in patients with >10% and >5% cellularity and blasts, respectively.

[4] = 72-hour viability, CellTiter-Glo, one range printed for all three agents over OCI-AML3, U937, Molm-13, MV4-11
[5] = Intermediate- and High-risk, evaluable for MRD status N = 9, alvocidib plus 7+3
[6] = Intermediate- and High-risk, evaluable for response N = 10, alvocidib plus 7+3
[7] = Intermediate- and High-risk, alvocidib plus 7+3

SMILES: CN1CC[C@H](c2c(OP(=O)(O)O)cc(O)c3c(=O)cc(-c4ccccc4Cl)oc23)[C@H](O)C1 [Structural Formula I]
oral bioavailability [1]: orally bioavailable

SMILES: COc1cccc2c1C(=O)c1c(O)c3c(c(O)c1C2=O)C[C@@](O)(C(C)=O)C[C@@H]3O[C@H]1C[C@H](N)[C@H](O)[C@H](C)O1 [daunorubicin]
tumor growth inhibition (TGI) (MV4-11 AML xenograft; single agent daunorubicin 0.5 mg/kg): 21.1%
comparison of IC50s/activity across cell lines ([2]; 72-hour viability): differing activities in Molm-13, in comparison to OCI-AML3
IC50 ([2]; 72 h): 2.2 to 567 nM

SMILES: CN1CC[C@H](c2c(O)cc(O)c3c(=O)cc(-c4ccccc4Cl)oc23)[C@H](O)C1 [alvocidib]
MCL-1 expression [3]: suppresses MCL-1 expression throughout the treatment regimen of cytarabine and daunorubicin
tumor growth inhibition (TGI) (MV4-11 AML xenograft; alvocidib 1.25 mg/kg): 60.0%
IC50 [2, 4]: 2.2 to 567 nM
MRD− (%) (previously untreated AML; All Risks, alvocidib plus 7+3): (67) %
MRD−, number of patients (previously untreated AML; All Risks, alvocidib plus 7+3): 10/15
MRD− Evaluable, number of patients (previously untreated AML; All Risks, patients evaluable for MRD status N = 14, alvocidib plus 7+3): 10/14
CR/CRi, number of patients (previously untreated AML; All Risks, patients evaluable for response N = 15, alvocidib plus 7+3, all dose levels): 12/15 and 12
MRD− Evaluable (%) (previously untreated AML; [5]): (56) %
MRD− Evaluable, number of patients (previously untreated AML; [5]): 5/9
CR/CRi (%) (previously untreated AML; [6]): (70) %
CR/CRi, number of patients (previously untreated AML; [6]): 7
MRD− (%) (previously untreated AML; [7]): (50) %
MRD−, number of patients (previously untreated AML; [7]): 5/10
MTD, IV bolus part (previously untreated AML; human, in vivo, iv): 30 mg/m^2
MTD, infusion part (previously untreated AML; human, in vivo, iv): 60 mg/m^2
MRD Status (previously untreated AML; per patient, alvocidib dose level 20, 30 mg/m^2 (bolus, infusion) days 1-3, then 7+3): Negative
MRD Status (previously untreated AML; per patient, alvocidib dose level 30, 40 mg/m^2 (bolus, infusion) days 1-3, then 7+3): Negative
Best Response (previously untreated AML; per patient, alvocidib dose level 30, 60 mg/m^2 (bolus, infusion) days 1-3, then 7+3, PD = progression of disease): CRi

IC50 [2, 4]: 2.2 to 567 nM
SMILES: Nc1ccn([C@@H]2O[C@H](CO)[C@@H](O)[C@@H]2O)c(=O)n1 [cytarabine]
tumor growth inhibition (TGI) (MV4-11 AML xenograft; single agent cytarabine 60 mg/kg): 48.5%
comparison of IC50s/activity across cell lines ([2]; 72-hour viability): differing activities in Molm-13, in comparison to OCI-AML3
